Earlier results as cited in patent publication EP4741436A1, “POLYMERIZABLE COMPOSITION FOR OPTICAL MATERIAL, POLYMERIZABLE PREPOLYMER COMPOSITION FOR OPTICAL MATERIAL, CURED ARTICLE, AND METHOD FOR PRODUCING OPTICAL MATERIAL” (Mitsui Chemicals, Inc., priority 2023, dated 2025).
Like-named read-outs stand apart in the source and are kept apart here.

Settings: for pKa: organic acids and basic polymerization catalysts, values given in text

Row | pKa | pKa of Organic Acid (organic acid used in the composition of the column) | pKa (listed as (±)-10-camphorsulfonic acid) | Structure (SMILES)
1 | 1.9 | – | – | CCCCS(=O)(=O)O [butanesulfonic acid]
2 | 1.9 | – | – | CCCS(=O)(=O)O [propanesulfonic acid]
3 | -2.7 | – | – | C=CS(=O)(=O)O [vinylsulfonic acid]
4 | 0.7 | – | – | O=S(=O)(O)c1ccccc1 [benzenesulfonic acid]
5 | 1.2 | 1.17 | 1.17 | CC1(C)C2CCC1(CS(=O)(=O)O)C(=O)C2 (racemic) [10-camphorsulfonic acid, (±)-10-camphorsulfonic acid]
6 | 1.8 | – | – | CCS(=O)(=O)O [ethanesulfonic acid]
